Measurements as given in PMC12040169 (PLOS Biology, 2025).

Assay: in vitro
Settings: human, hela cells, % viability

| Compound | viability at 28.5 h, 10 µM [%] |
| --- | --- |
| CCOc1ccccc1N1CCN(C(C(=O)O)c2c[nH]c3ccc(CO)cc23)CC1 (centres unmarked) [CBK286816] | 90.1 |
| CCNc1nccnc1-c1ccncc1 [CBK088586] | 119 |
| OCc1ccccc1-c1cn2ccnc2c(N[C@@H]2CCN(Cc3ccccc3)C2)n1 [CBK037969] | 104 |
| COc1ccc2[nH]cc(C3CCN(Cc4nc(C)no4)CC3)c2c1 [CBK305982] | 94.6 |
| CCN1C(=O)c2ccccc2C(=O)[C@@]2(C)CN(C)C[C@@H]12 [CBK283478] | 88.3 |
| Cc1cc(COC(=O)NCc2ccncc2)cc(C)n1 [CBK200136] | 99.4 |
| COC[C@H]1CCCN1C(=O)CC[C@H]1CNC(=O)[C@@H]2[C@@H](CCN2C2CCOCC2)N1C [CBK289037] | 90.9 |
| Cn1c(C(=O)N2CCc3ccccc3C2)cc2ccccc21 [CBK200337] | 96.7 |
| Clc1ccc(CN2CCC(Oc3cncc(OCc4cccnc4)n3)C2)cc1Cl (centres unmarked) [CBK084448] | 84 |
| CC1(C)Cc2nc3sc(C(=O)O)c(NC(=O)c4ccccc4)c3cc2CO1 [CBK266166] | 98.4 |
| CC(C)CCCC(=O)n1c(=O)n(CCc2c[nH]c3ccccc23)c2ccccc21 [CBK106513] | 89.2 |
| COc1cnc(-c2cnn(C)c2)c(NC(=O)Cc2ccccc2)n1 [CBK145327] | 101 |
| Cc1nc(N2CCN(Cc3ccc4c(c3)OCO4)CC2)c2c(C)c(C)sc2n1 [CBK266739] | 100 |
| CCCCCc1nnc(NC(=O)c2cccs2)s1 [CBK058382] | 103 |
| Cc1ccc(/C=N/NC(=O)CN(c2ccccc2)S(=O)(=O)c2ccccc2)c(C)c1C [CBK262098] | 89.6 |
| COc1cccc(NC(=O)NC(=O)C2CCN(C(C)C)CC2)c1 [CBK034798] | 89.6 |
| COc1cccc(CN2CCC(c3ncc(C(=O)Nc4ccc(F)cc4)c(C)n3)CC2)c1 [CBK285630] | 89.8 |
| CCOc1cc(S(=O)(=O)NCCCn2ccnc2)ccc1Cl [CBK269874] | 89 |
| C[C@@H]1CN(C(=O)c2ccc3[nH]nnc3c2)C[C@H](C)O1 [CBK200369] | 104 |
| CC1CN(Cc2ccccc2)CCN1c1cnccn1 (centres unmarked) [CBK013684] | 102 |
| CN1CCCN(c2nc(-c3cccs3)cn3ccnc23)CC1 [CBK066652] | 89.5 |
| CC(=O)Nc1ccc(CNC(=O)c2ccoc2C)cc1 [CBK305010] | 114 |

| Compound | viability at 28.5 h, 10 µM [%] |
| --- | --- |
| CC(Sc1nc(-c2ccccc2F)n[nH]1)C(=O)N1CCNC1=O (centres unmarked) [CBK295594] | 106 |
| O=C(NC(=S)Nc1ccc(OCc2ccccc2)cc1)c1cccnc1 [CBK266224] | 97.8 |
| O=C(NCc1cccc(C(F)(F)F)c1)N1CCN(c2ccc(F)cc2)CC1 [CBK156390] | 89.4 |
| Nc1ncc(-c2ccc(F)c(Cl)c2)nc1NCCCO [CBK063555] | 101 |
| CCc1nn(CC(=O)NCC2CC2)c(=O)c2cc3sc(C)cc3n12 [CBK284100] | 85.7 |
| NC1=NC(=O)C2(COC(c3cccnc3)OC2)S1 (centres unmarked) [CBK019981] | 91.3 |
| CN(C)c1ccc(NC(=O)CC2Nc3ccccc3NC2=O)cc1 (centres unmarked) [CBK262765] | 87.1 |
| COC(=O)c1ccc(N/C(C)=C/C(=O)c2ccc(C)o2)cc1 [CBK267057] | 115 |
| O=C(N/N=C/c1cccnc1)c1cccc(F)c1 [CBK261689] | 101 |
| COc1cc(-c2cnc(N)c(N3CCC[C@@H]3CO)n2)cc(OC)c1OC [CBK063478] | 101 |
| O=S(=O)(Cc1ccccc1)c1cc2c(N3CCNCC3)nccc2s1 [CBK200017C] | 91.9 |
| Cc1cccc(C)c1NC(=O)CN1CCC(Oc2cncc(OCc3cccnc3)n2)C1 (centres unmarked) [CBK084460] | 87.6 |
| Cc1nc2cc(C(=O)O)ccc2n1CCO [CBK260949] | 106 |
| O=C(CCn1c(C(F)(F)F)cc2cccnc21)N1CCCC1 [CBK284962] | 106 |
| CCC(=O)NCc1csc(-c2ccccc2)n1 [CBK092344] | 90.1 |
| CCCn1nc(C)c(-c2cncn2CC(C)n2nc(C)cc2C)c1C (centres unmarked) [CBK281793] | 103 |
| O=C(c1nccc2ccccc12)N1CCc2ccccc21 [CBK200405] | 93.5 |
| COC(=O)CCCN1CCCC12CCc1[nH]c3ccccc3c1C2 (centres unmarked) [CBK107798T] | 95.6 |
| Cc1ccc(COc2cc(C(=O)NCc3ccccn3)c3ccccc3n2)cc1 [CBK294403] | 112 |
| CC1CCc2nc(NC(=O)Cn3cccc(C(=O)Nc4ccc(F)cc4)c3=O)sc2C1 (centres unmarked) [CBK286063] | 95.5 |
| O=C(c1ccc(Cl)cc1)N1CCN(C(=O)c2cc(O)nc3ccccc23)CC1 [CBK296666] | 103 |
| COc1ccc(C(C)NC(=O)CCn2ccc3ccncc32)cc1 (centres unmarked) [CBK284798] | 92.4 |
